{"source": "ChEMBL document CHEMBL5346914", "about": "“Optimization of carbazole carboxamide RORγt agonists: Challenges in improving the metabolic stability and maintaining the agonistic activity” (Eur J Med Chem, 2023)", "key": {"[1]": {"assay": "Microsomal stability in mouse liver microsome assessed as half life at 1 uM preincubated for 10 mins followed by NADPH addition measured upto 60 mins by HPLC-MS/MS analysis", "type": "ADME", "settings": "liver microsomes, time < 70 min"}, "[2]": {"target": "T1, Nuclear receptor ROR-gamma (Homo sapiens, UniProt P51449)", "T1 sequence (P51449 whole entry)": "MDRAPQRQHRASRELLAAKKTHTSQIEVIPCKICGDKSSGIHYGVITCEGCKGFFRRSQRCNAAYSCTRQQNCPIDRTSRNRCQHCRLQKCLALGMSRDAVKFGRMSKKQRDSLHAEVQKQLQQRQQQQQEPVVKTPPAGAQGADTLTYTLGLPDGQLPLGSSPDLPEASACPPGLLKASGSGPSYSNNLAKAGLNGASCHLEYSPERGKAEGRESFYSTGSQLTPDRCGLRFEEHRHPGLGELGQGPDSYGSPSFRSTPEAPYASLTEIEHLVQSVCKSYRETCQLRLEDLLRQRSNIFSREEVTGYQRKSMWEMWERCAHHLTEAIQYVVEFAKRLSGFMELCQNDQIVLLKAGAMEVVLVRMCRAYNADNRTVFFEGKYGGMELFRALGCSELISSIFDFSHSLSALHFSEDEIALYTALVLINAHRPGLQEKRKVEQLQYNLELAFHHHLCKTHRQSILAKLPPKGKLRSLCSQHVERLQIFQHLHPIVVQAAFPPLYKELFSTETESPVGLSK", "assay": "Agonist activity at human RORgammat LBD (265 to 507 residues) expressed in Escherichia coli BL21(DE3) cells incubated for 1 hr FRET assay"}, "[3]": {"target": "T1, Nuclear receptor ROR-gamma", "assay": "Agonist activity at Gal4-fused human RORgammat LBD expressed in HEK293T cells assessed as luciferase activity incubated for 16 to 20 hrs by luciferase reporter gene assay", "type": "cell-based"}, "[4]": {"target": "T1, Nuclear receptor ROR-gamma", "assay": "Inverse agonist activity at human RORgammat LBD (265 to 507 residues) expressed in Escherichia coli BL21(DE3) cells incubated for 1 hr FRET assay"}}, "data": [{"smiles": "CCn1c2ccc(CC3CC3)cc2c2cc(C(=O)NC(COC)c3ccc(S(=O)(=O)CC)cc3)ccc21", "note": "(racemic)", "values": [{"measurement": "half-life at 1 µM", "setting": "[1]", "result": "> 145", "unit": "min"}]}, {"smiles": "CCn1c2ccc(OC(C)C(F)(F)F)cc2c2cc(C(=O)NCc3ccc(S(=O)(=O)CC)cc3)ccc21", "note": "(stereo unspecified)", "values": [{"measurement": "half-life at 1 µM", "setting": "[1]", "result": 19.9, "unit": "min"}]}, {"smiles": "CCn1c2ccc(OC(C)C)cc2c2cc(C(=O)NC(CO)c3ccc(S(=O)(=O)CC)cc3)ccc21", "note": "(racemic)", "values": [{"measurement": "half-life at 1 µM", "setting": "[1]", "result": 17.9, "unit": "min"}]}, {"smiles": "CCn1c2ccc(CC3CC3)cc2c2cc(C(=O)N[C@@H](COC)c3ccc(S(=O)(=O)CC)cc3)ccc21", "values": [{"measurement": "half-life at 1 µM", "setting": "[1]", "result": "> 154", "unit": "min"}]}, {"smiles": "CCn1c2ccc(OC(C)C)cc2c2cc(C(=O)NCc3ccc(S(C)(=O)=O)cc3)ccc21", "values": [{"measurement": "EC50", "setting": "[2]", "result": 12.1, "unit": "nM"}, {"measurement": "half-life at 1 µM", "setting": "[1]", "result": 14.8, "unit": "min"}]}, {"smiles": "CCn1c2ccc(OC(C)C)cc2c2cc(C(=O)NCc3ccc(S(=O)(=O)CC)cc3)ccc21", "values": [{"measurement": "half-life at 1 µM", "setting": "[1]", "result": 8.7, "unit": "min"}]}, {"smiles": "CCS(=O)(=O)c1ccc(C(COC)NC(=O)c2ccc3c(c2)c2cc(CC4CC4)ccc2n3CCF)cc1", "note": "(racemic)", "values": [{"measurement": "EC50", "setting": "[2]", "result": 28.3, "unit": "nM"}, {"measurement": "half-life at 1 µM", "setting": "[1]", "result": 37.1, "unit": "min"}, {"measurement": "EC50", "setting": "[3]", "result": 348, "unit": "nM"}]}, {"smiles": "CCn1c2ccc(OC(C)C)cc2c2cc(C(=O)NCc3ccc(S(C)(=O)=O)cn3)ccc21", "values": [{"measurement": "half-life at 1 µM", "setting": "[1]", "result": 17, "unit": "min"}]}, {"smiles": "CCn1c2ccc(OC3CCC3)cc2c2cc(C(=O)NCc3ccc(S(=O)(=O)CC)cc3)ccc21", "values": [{"measurement": "half-life at 1 µM", "setting": "[1]", "result": 16.4, "unit": "min"}]}, {"smiles": "CCn1c2ccc(CC3CC3)cc2c2cc(C(=O)NC(CO)c3ccc(S(=O)(=O)CC)cc3)ccc21", "note": "(racemic)", "values": [{"measurement": "EC50", "setting": "[2]", "result": 14.7, "unit": "nM"}, {"measurement": "half-life at 1 µM", "setting": "[1]", "result": 41.4, "unit": "min"}]}, {"smiles": "CCn1c2ccc(CN(C)C)cc2c2cc(C(=O)NCc3ccc(S(=O)(=O)CC)cc3)ccc21", "values": [{"measurement": "EC50", "setting": "[2]", "result": 181, "unit": "nM"}]}, {"smiles": "CCn1c2ccc(CC(C)C(F)(F)F)cc2c2cc(C(=O)NCc3ccc(S(=O)(=O)CC)cc3)ccc21", "note": "(stereo unspecified)", "values": [{"measurement": "half-life at 1 µM", "setting": "[1]", "result": 26.2, "unit": "min"}]}, {"smiles": "CCn1c2ccc(CC3CC3)cc2c2cc(C(=O)NCc3ccc(S(=O)(=O)CC)cc3)ccc21", "values": [{"measurement": "half-life at 1 µM", "setting": "[1]", "result": 48.8, "unit": "min"}]}, {"smiles": "CCS(=O)(=O)c1ccc(CNC(=O)c2ccc3c(c2)c2cc(CC4CC4)ccc2n3CCF)cc1", "values": [{"measurement": "EC50", "setting": "[2]", "result": 15.7, "unit": "nM"}, {"measurement": "half-life at 1 µM", "setting": "[1]", "result": 80.4, "unit": "min"}, {"measurement": "EC50", "setting": "[3]", "result": 245, "unit": "nM"}]}, {"smiles": "CCn1c2ccc(C(=O)NCc3ccc(S(=O)(=O)CC)cc3)cc2c2c(OC(C)C)cccc21", "values": [{"measurement": "EC50", "setting": "[2]", "result": 29.4, "unit": "nM"}]}, {"smiles": "CCn1c2ccc(CC3COC3)cc2c2cc(C(=O)NCc3ccc(S(=O)(=O)CC)cc3)ccc21", "values": [{"measurement": "IC50", "setting": "[4]", "result": 6590, "unit": "nM"}]}, {"smiles": "CCn1c2ccc(CC(C)C)cc2c2cc(C(=O)NCc3ccc(S(=O)(=O)CC)cc3)ccc21", "values": [{"measurement": "EC50", "setting": "[2]", "result": 10.9, "unit": "nM"}, {"measurement": "half-life at 1 µM", "setting": "[1]", "result": 26.9, "unit": "min"}]}, {"smiles": "CCn1c2ccc(CC3CC3)cc2c2cc(C(=O)N[C@H](COC)c3ccc(S(=O)(=O)CC)cc3)ccc21", "values": [{"measurement": "half-life at 1 µM", "setting": "[1]", "result": 40.8, "unit": "min"}]}, {"smiles": "CCn1c2ccc(CC3CCC3)cc2c2cc(C(=O)NCc3ccc(S(=O)(=O)CC)cc3)ccc21", "values": [{"measurement": "EC50", "setting": "[2]", "result": 12.6, "unit": "nM"}]}, {"smiles": "CCn1c2ccc(CC(C)(C)F)cc2c2cc(C(=O)NCc3ccc(S(=O)(=O)CC)cc3)ccc21", "values": [{"measurement": "EC50", "setting": "[2]", "result": 10.3, "unit": "nM"}, {"measurement": "half-life at 1 µM", "setting": "[1]", "result": 20.8, "unit": "min"}]}, {"smiles": "CCn1c2ccc(OC(C)C)cc2c2cc(C(=O)NCc3ccc(S(=O)(=O)CC)cn3)ccc21", "values": [{"measurement": "EC50", "setting": "[2]", "result": 5.6, "unit": "nM"}, {"measurement": "half-life at 1 µM", "setting": "[1]", "result": 18.2, "unit": "min"}]}, {"smiles": "CCn1c2ccc(OC3CC3)cc2c2cc(C(=O)NCc3ccc(S(=O)(=O)CC)cc3)ccc21", "values": [{"measurement": "half-life at 1 µM", "setting": "[1]", "result": 16.5, "unit": "min"}]}, {"smiles": "CCn1c2ccc(OCC(C)C)cc2c2cc(C(=O)NCc3ccc(S(=O)(=O)CC)cc3)ccc21", "values": [{"measurement": "half-life at 1 µM", "setting": "[1]", "result": 20.4, "unit": "min"}]}, {"smiles": "CCS(=O)(=O)c1ccc(CNC(=O)c2ccc3c(c2)c2cc(OC(C)C)ccc2n3CCF)cc1", "values": [{"measurement": "EC50", "setting": "[2]", "result": 7.8, "unit": "nM"}, {"measurement": "half-life at 1 µM", "setting": "[1]", "result": 14.1, "unit": "min"}]}, {"smiles": "CCn1c2ccc(CC3CC3)cc2c2cc(C(=O)NCc3ccc(S(C)(=O)=O)cn3)ccc21", "values": [{"measurement": "EC50", "setting": "[2]", "result": 12.5, "unit": "nM"}]}, {"smiles": "CCn1c2ccc(CC3CC3)cc2c2cc(C(=O)NCc3ccc(S(=O)(=O)CC)cn3)ccc21", "values": [{"measurement": "EC50", "setting": "[2]", "result": 9.7, "unit": "nM"}]}]}
